Source: patent US20100293626A1, “METHODS FOR IMPROVEMENT OF BIRTH RATES IN CANIDAE ON SOMATIC CELL NUCLEAR TRANSFER” (SEOUL NATIONAL UNIVERSITY INDUSTRY FOUNDATION, priority 2007, published 2010)

How the values were obtained:
[1] = system: reconstructed oocytes (canine cloned embryos); experiment: Nuclear remodeling of reconstructed oocytes after somatic cell nuclear transfer with roscovitine-treated donor cells; format: cell-based, dog
Protocol: Before performing somatic cell nuclear transfer, the cells were thawed and cultured for 24 hours in a medium supplemented with 15 μM roscovitine (i.e., DMEM+10% FBS+15 μM roscovitine). Then, the cells were treated with trypsin for about 2 minutes during somatic cell nuclear transfer and collected from the monolayer.
The nuclear donor cells prepared in Example 3 were microinjected into the enucleated oocytes prepared in Example 2. The nuclear donor cells were microinjected into a perivitelline space of the enucleated oocytes in the following manner. The enucleated oocytes were treated with […] phytohemagglutinin in the medium of Table 1, and the slit of the enucleated oocytes was held with a holding pipette. Then, a transfer pipette was inserted into the slit, and the single cells isolated from fibroblasts in Example 3 were injected between the cytoplasm and zona pellucida of the enucleated oocytes by the transfer pipette.
Then, the nuclear donor cell-oocyte couplets were placed in a fusion medium (containing 0.26 M mannitol, 0.1 mM MgSO4, 0.5 mM HEPES and 0.05% BSA) and interposed between two parallel electrodes attached to a micromanipulator (Nikon-Narishige, Japan). Then, the fusion of the couplets was induced by electrical stimulation applied twice at a voltage of 4 kV/cm for 15 μs using an electro-cell fusion apparatus (NEPA GENE Co., Chiba, Japan).
After 1 hour of electrical stimulation, the fusion of the nuclear donor cells with the oocyte cytoplasm was observed under a stereomicroscope. The fused embryos were selected and cultured for 1.5-4 hours in TCM-199 (Table 2) supplemented with 10% (v/v) FBS.
The nuclear transfer embryos obtained in Example 4 were cultured in mSOF containing 10 μM ionophore (Sigma) at 39° C. for 4 minutes, thus inducing the activation of the nuclear transfer embryos. Then, the nuclear transfer embryos were washed and further cultured in mSOF (Table 3) supplemented with 1.9 mM 6-dimethylaminopurin for 4 hours.
After performing canine somatic cell nuclear transfer into the enucleated oocytes using the microinjection method, the difference in the formation and change of nuclei between a control group not treated with roscovitine and a group treated with roscovitine for 24 hours, was examined.

[2] = system: surrogate mothers; experiment: Pregnancy rate after transfer of nuclear transfer embryos into surrogate mothers; format: in vivo, dog
Protocol: The nuclear transfer embryos from Example 5 were surgically transferred into the oviduct of estrus synchronized surrogate mothers. The transfer was carried out within 4 hours after the activation of the nuclear transfer embryos. […] For the transfer, the surrogate mothers were anesthetized by vascular injection with 0.1 mg/kg acepromazine and 6 mg/kg propofol, and maintained at the anesthetized state using 2% isoflurane. Operation area of the anesthetized female dogs was aseptically operated and incised on the center of the abdomen according to general laparotomy so as to expose the oviduct. The abdominal cavity was stimulated by hand to draw the ovary, the oviduct and the uterus to the incision. The mesovarium of the drawn ovary was carefully handled to recognize the opening of the oviduct, and a 3.5 F Tom cat catheter (Sherwood, St. Louis, Mo.) equipped with a 1.0 ml tuberculin syringe (Latex free, Becton Dickinson & CO. Franklin lakes, N.J. 07417) was inserted into the oviduct to secure a sufficient space in the front of the catheter. Then, the nuclear transfer embryos were injected into the oviduct through the catheter. Whether the nuclear transfer embryos were successfully injected was observed under a microscope. The abdominal suture was performed with an absorbable suture material, and then, skin suture was performed. To prevent post-surgery infection, a broad range of antibiotic was injected for 3 days.
At 23 days after transferring the nuclear transfer embryos into the surrogate mothers, pregnancies were detected using a SONOACE 9900 (Medison Co. LTD, Seoul, Korea) ultrasound scanner with an attached 7.0 MHZ linear probe. Pregnancy was monitored by ultrasound every 2 weeks after initial confirmation. As a result, it was confirmed that the dogs had become pregnant, and the cloned dogs were produced by inducing natural delivery or performing Cesarean section. […]

[3] = 1 hpf, donor cells treated with roscovitine for 24 hours
[4] = 4 hpa, donor cells treated with roscovitine for 24 hours

CC[C@@H](CO)Nc1nc(NCc2ccccc2)c2ncn(C(C)C)c2n1 [roscovitine]
No. of reconstructed oocytes with IN (intact nucleus) ([1]; 1 hpf (hour post fusion), donor cells treated with roscovitine for 24 hours): 11 | IN (%) for reconstructed oocytes [1, 3]: (32.3 ± 7.0) % | No. of reconstructed oocytes with NE (nuclear enlargement) [1, 3]: 0 | No. of reconstructed oocytes with NS (nuclear swelling) [1, 3]: 0 | No. of reconstructed oocytes with PCC (premature chromosome condensation) [1, 3]: 23 | PCC (%) for reconstructed oocytes [1, 3]: (67.6 ± 7.0) % | No. of reconstructed oocytes with IN (intact nucleus) ([1]; 4 hpa (hour post activation), donor cells treated with roscovitine for 24 hours): 0 | NE (%) for reconstructed oocytes [1, 4]: (23.6 ± 7.5) % | NS (%) for reconstructed oocytes [1, 4]: (73.6 ± 7.5) % | No. of reconstructed oocytes with NE (nuclear enlargement) [1, 4]: 9 | No. of reconstructed oocytes with NS (nuclear swelling) [1, 4]: 28 | No. of reconstructed oocytes with PCC (premature chromosome condensation) [1, 4]: 1 | PCC (%) for reconstructed oocytes [1, 4]: (2.6 ± 3.3) % | Nuclear swelling (NS) compared with control group, in words ([1]; 4 hours after activation of the fused embryos): occurred more in the treated group than in the control group | Rate of premature chromosome condensation (PCC) compared with control group, in words ([1]; after electrical fusion (1 hour elsewhere in the source)): at a rate significantly higher than that in the control group | No. of pregnant mothers ([2]; 556 embryos transferred into 29 surrogate mothers, donor cells treated with roscovitine): 11 | Pregnancy rate (based on transfer embryos) ([2]; 556 transfer embryos): 3.95% | Pregnancy rate compared with control, in words ([2]; somatic cell nuclear transfer after treatment with roscovitine): very significantly increased
